Measured values published in article PMC3018327 (Nature immunology, 2010).

What was measured:
HLA-DM = HLA-DM (Homo sapiens, UniProt P28067+P28068, N110D/N191D); experiment: SPR; conditions: complexes 5 μM injected 2 min, pH 5.35, 15 μl/min, 25 °C, Fig. 4d-f
DM-DR2 complex = experiment: SPR peptide-induced dissociation of the complex of DM and empty DR2; assay type: binding, human; conditions: SPR stage 3, peptide 1 μM, pH 5.35, 30 °C; Fig. 1e
DR4 = conditions: cited from earlier work
DR1 linked to DM = conditions: leucine zipper dimerization domains attached to DMβ and DRβ chains; cited from earlier work
DR1 = conditions: cited from earlier work

Chain of HLA-DM (P28067 27-233 N191D): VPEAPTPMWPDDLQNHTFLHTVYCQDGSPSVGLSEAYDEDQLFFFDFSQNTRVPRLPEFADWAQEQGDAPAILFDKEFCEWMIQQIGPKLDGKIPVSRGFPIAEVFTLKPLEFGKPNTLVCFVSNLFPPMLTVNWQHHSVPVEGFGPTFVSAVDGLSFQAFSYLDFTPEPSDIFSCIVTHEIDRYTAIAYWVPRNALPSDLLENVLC
Chain of HLA-DM (P28068 19-218 N110D): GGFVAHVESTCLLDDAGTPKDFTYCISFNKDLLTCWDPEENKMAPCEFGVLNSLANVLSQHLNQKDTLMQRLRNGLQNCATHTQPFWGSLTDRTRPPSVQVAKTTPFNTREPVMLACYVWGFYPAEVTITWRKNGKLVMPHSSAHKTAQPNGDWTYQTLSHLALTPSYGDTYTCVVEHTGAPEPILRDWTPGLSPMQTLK

Substance	DM binding of DR1 complexes with disulfide-linked HA6 or HA3 peptides (HLA-DM)	also measured
CQNTLKLAT [HA3 P3 P11]	appeared to slow DM binding	–
KYVKQNCLKLAT [HA6 P-1–P11]	not sufficient for DM binding	–
MBP85-99: high-affinity peptide from myelin basic protein (amino acids 85–99) (PGSRPHLIRLFSRDA; UniProt P02686 85-99, looked up, fragment)	–	peptide-induced dissociation of DR2 from DM (DM-DR2 complex): induced dissociation of DR2 from DM
Me-YVCQNTLKLAT [HA3 P1me–P11]	did not permit DM binding	–
PKAVKQNCLKLAT [HA6 P1A]	only low amounts of DM binding	–
PVSKMRMATPLLMQA [CLIP]	–	affinity of CLIP for DR4 (DR4): very low affinity; t1/2 of peptide dissociation from DR1 forcibly linked to DM (DR1 linked to DM): 10 s; affinity of CLIP for DR1 (DR1): high affinity
VCQNTLKLAT [HA3 P2–P11]	rapid binding	–
VKQNCLKLAT [HA6 P2–P11]	strong DM binding	–
YVKQNCLKLAT [HA6 P1–P11]	not sufficient for DM binding	–
